Counter-ions that a name gives are not always drawn. Like-named read-outs stand apart in the source and are kept apart here.
Tested on: Plasmodium falciparum: 3D7 strain
Assay: P. falciparum 3D7 asexual blood stage assay (SYBR green readout)
Assay type: cell-based
Conditions: Plasmodium falciparum, P. falciparum 3D7 in human erythrocytes, 72 h incubation, SYBR green fluorescence
From the text: The compounds of the present invention are potent inhibitors of the growth and propagation of the Plasmodium falciparum parasite in human blood.
The assay used to measure the effect of test compounds on a bloodstream stage of Plasmodium falciparum: 3D7 strain employs SYBR green as the readout. This is a dye that binds to double stranded deoxyribonucleic acid (DNA) with a resulting increase in fluorescence, allowing detection of P. falciparum DNA in infected erythrocytes, and thereby providing a measure of parasite growth and propagation.
Erythrocytes (A+blood) were prepared for both parasite culture and assay by washing 4 times with incomplete media (15.9 g RPMI 1640 (25 mM HEPES, L-glutamine), 1 g NaHCO3, 2 g glucose, 400 μL gentacin (500 mg/mL), 2 mL hypoxanthine solution (13.6 g/L in 0.1M NaOH pH 7.3) in 1 litre of media). The cells were centrifuged at 1800 g for 5 minutes, before decanting the supernatant and re-suspending in fresh incomplete media. On the final wash, the cells were re-suspended in complete media (incomplete media with 5 g/L AlbumaxII), and centrifuged at 1800 g for 3 minutes. This cell sediment was treated as 100% haematocrit.
P. falciparum 3D7 was cultured in erythrocytes at 5% haematocrit in complete media at 37° C. (1% O2, 3% CO2, balance N2). Cultures were split on a weekly basis to achieve a 1% parasitaemia in erythrocites at 5% haematocrit in fresh media. Culture media is replaced by fresh media every other day (2 times during the week).
On day 1, test compounds were added to assay plates using Echo dispensing technology ([…] and 20 points titration). 50 nL of each compound dilution was added to 50 μL of culture (5% haematocrit, 0.5% parasitaemia) and incubated for 72 h at 37° C. (1% O2, 3% CO2, balance N2). Final concentrations of test compounds ranged from 50,000 nM to 15 nM, in […].
On day 4, 10 μL SYBR green (Invitrogen S7563 supplied as 10,000×concentrate in DMSO) pre-diluted to 3×concentrate with Lysis buffer (20 mM Tris pH 7.9, 5% EDTA, 0.16% w/v, 1.6% TX100 v/v) was added to the cultures and incubated in the dark, overnight, at room temperature.
On day 5, fluorescent signal was measured using a BioTek plate reader (excitation 485 nm, emission 528 nm). All data were processed using IDBS ActivityBase. Raw data were converted into percent inhibition through linear regression by setting the high inhibition control (mefloquine) as 100% and the no inhibition control (DMSO) as 0%. Quality control criteria for passing plates were as follows: Z′>0.5, S:B>3, % CV(no inhibition control)<15. The formula used to calculate Z′ is: […]
All EC50 curve fitting was undertaken using the following bi-phasic two site dose response using XLfit model 300 (IDBS):
where A=100 minus the top of the upper curve 1 and the bottom of lower curve; B=Hill slope; log(C)=IC50 concentration at lower site; log(D)=IC50 concentration at upper site; x=inhibitor concentration; and y=% inhibition.

Row | Structure (SMILES) | IC50 (3D7, Erythrocyte, 72 h) [nM] | IC50 (Erythrocyte, read-out: IC50) [nM]
1 | C[C@@]1(c2cccc(-c3ccc(F)cc3F)c2Cl)CC(=O)N([C@@H]2CCC(F)(F)[C@H](O)C2)C(=N)N1 (relative stereo) [Example 97, (6S)-6-[2-Chloro-3-(2,4-difluoro-phenyl)phenyl]-3-[(1R*,3R*)-4,4-difluoro-3-hydroxycyclohexyl]-2-imino-6-methylhexahydro-pyrimidin-4-one hydrochloride] | 280 | 
2 | C[C@H]1C[C@@H](N2C(=N)N[C@](C)(c3cccc(-c4cc5cccnc5n4C)c3Cl)CC2=O)CCO1 [Example 30, (6S)-6-[2-Chloro-3-(1-methyl-pyrrolo[2,3-b]pyridin-2-yl)phenyl]-2-imino-6-methyl-3-[(2S,4S)-2-methyltetrahydropyran-4-yl]-hexahydropyrimidin-4-one trifluoroacetic acid salt] | 199 | 
3 | C[C@H]1C[C@@H](N2C(=N)N[C@](C)(c3cccc(-c4ccc(Cl)cc4Cl)c3Cl)CC2=O)CCO1 [Example 16, (6S)-6-[2-Chloro-3-(2,4-dichloro-phenyl)phenyl]-2-imino-6-methyl-3-[(2S,4S)-2-methyltetrahydro-pyran-4-yl]hexahydropyrimidin-4-one trifluoroacetic acid salt] | 66 | 
4 | C[C@H]1C[C@H](N2C(=N)N[C@](C)(c3cccc(-c4ccc(C5CC5)nc4)c3Cl)CC2=O)CCS1(=O)=O (relative stereo) [Example 69, (6S)-6-[2-Chloro-3-(6-cyclopropyl-pyridin-3-yl)phenyl]-2-imino-6-methyl-3-[(2S*,4R*)-2-methyl-1,1-dioxothian-4-yl]hexahydro-pyrimidin-4-one hydrochloride] | 260 | 
5 | C[C@H]1C[C@@H](N2C(=N)N[C@](C)(c3cccc(-c4ccc(OC(F)(F)F)nc4)c3Cl)CC2=O)CCS1(=O)=O (relative stereo) [Example 78, (6S)-6-{2-Chloro-3-[6-(trifluoro-methoxy)pyridin-3-yl]phenyl}-2-imino-6-methyl-3-[(2S*,4S*)-2-methyl-1,1-dioxothian-4-yl]-hexahydropyrimidin-4-one hydrochloride] | 365 | 
6 | C[C@H]1C[C@@H](N2C(=N)N[C@](C)(c3cccc(-c4cccc(Cl)c4)c3Cl)CC2=O)CC[C@@H]1O (relative stereo) [Example 105, (6S)-6-[2-Chloro-3-(3-chloro-phenyl)phenyl]-3-[(1R*,3R*,4R*)-4-hydroxy-3-methylcyclohexyl]-2-imino-6-methylhexahydro-pyrimidin-4-one hydrochloride] | 1560 | 
7 | C[C@H]1C[C@@H](N2C(=N)N[C@](C)(c3cccc(-c4cccc(N=S(C)(C)=O)c4)c3Cl)CC2=O)CCC1(F)F [Example 20, (6S)-6-[2-Chloro-3-(3-{[(dimethyl)-(oxo)-λ^6-sulfanylidene]amino}-phenyl)phenyl]-3-[(1S,3S)-4,4-difluoro-3-methylcyclohexyl]-2-imino-6-methylhexahydro-pyrimidin-4-one hydrochloride] | 88 | 
8 | C[C@H](c1cccnc1)n1cc(-c2cccc([C@]3(C)CC(=O)N([C@H]4CCO[C@@H](C)C4)C(=N)N3)c2Cl)nn1 [Example 128, (6S)-6-(2-Chloro-3-{1-[(1R)-1-(pyridin-3-yl)ethyl]-1,2,3-triazol-4-yl}phenyl)-2-imino-6-methyl-3-[(2S,4S)-2-methyltetrahydropyran-4-yl]hexahydropyrimidin-4-one trifluoroacetic acid salt] | 112 | 
9 | C[C@H]1C[C@@H](N2C(=N)N[C@](C)(c3cccc(-c4ccc(Cl)cc4F)c3Cl)CC2=O)CCO1 [Example 15, (6S)-6-[2-Chloro-3-(4-chloro-2-fluorophenyl)phenyl]-2-imino-6-methyl-3-[(2S,4S)-2-methyl-tetrahydropyran-4-yl]hexahydro-pyrimidin-4-one trifluoroacetic acid salt] | 142 | 
10 | C[C@H]1C[C@@H](N2C(=N)N[C@](C)(c3cccc(-c4cc(F)cc(F)c4)c3Cl)CC2=O)CCO1 [Example 44, (6S)-6-[2-Chloro-3-(3,5-difluoro-phenyl)phenyl]-2-imino-6-methyl-3-[(2S,4S)-2-methyltetrahydro-pyran-4-yl]hexahydropyrimidin-4-one trifluoroacetic acid salt] | 103 | 
11 | C[C@H]1C[C@@H](N2C(=N)N[C@](C)(c3cccc(-c4ccnnc4)c3Cl)CC2=O)CCO1 [Example 33, (6S)-6-[2-Chloro-3-(pyridazin-4-yl)phenyl]-2-imino-6-methyl-3-[(2S,4S)-2-methyltetrahydropyran-4-yl]hexahydropyrimidin-4-one trifluoroacetic acid salt] | 186 | 
12 | CC(C)c1ccccc1-c1cccc([C@]2(C)CC(=O)N([C@H]3CCO[C@@H](C)C3)C(=N)N2)c1Cl [Example 36, (6S)-6-[2-Chloro-3-(2-isopropyl-phenyl)phenyl]-2-imino-6-methyl-3-[(2S,4S)-2-methyltetrahydro-pyran-4-yl]hexahydropyrimidin-4-one trifluoroacetic acid salt] | 95 | 
13 | CN1CCC(N2C(=N)N[C@](C)(c3cccc(-c4ccc(F)cc4F)c3Cl)CC2=O)CC1 [Example 93, (6S)-6-[2-Chloro-3-(2,4-difluoro-phenyl)phenyl]-2-imino-6-methyl-3-(1-methylpiperidin-4-yl)-hexahydropyrimidin-4-one] |  | 112
14 | C[C@H]1C[C@@H](N2C(=N)N[C@](C)(c3cccc(-c4ccc(C5CC5)nc4)c3Cl)CC2=O)CCO1 [Example 31, (6S)-6-[2-Chloro-3-(6-cyclopropyl-pyridin-3-yl)phenyl]-2-imino-6-methyl-3-[(2S,4S)-2-methyl-tetrahydropyran-4-yl]hexahydro-pyrimidin-4-one trifluoroacetic acid salt] | 180 | 
15 | C[C@H]1C[C@@H](N2C(=N)N[C@](C)(c3cccc(-c4cccc(-c5ccn[nH]5)c4)c3Cl)CC2=O)CCO1 [Example 53, (6S)-6-{2-Chloro-3-[3-(1H-pyrazol-5-yl)phenyl]phenyl}-2-imino-6-methyl-3-[(2S,4S)-2-methyl-tetrahydropyran-4-yl]hexahydro-pyrimidin-4-one trifluoroacetic acid salt] | 25 | 
16 | C[C@@H]1C[C@H](N2C(=N)N[C@](C)(c3cccc(-c4ccc(F)cc4F)c3Cl)CC2=O)CCN1C (relative stereo) [Example 107, (6S)-6-[2-Chloro-3-(2,4-difluoro-phenyl)phenyl]-3-[(2R*,4R*)-1,2-dimethylpiperidin-4-yl]-2-imino-6-methylhexahydropyrimidin-4-one hydrochloride] | 228 | 
17 | C[C@@]1(c2cccc(-c3cccc(Cl)c3)c2Cl)CC(=O)N(C(CO)C2CC2)C(=N)N1 (single isomer, unassigned) [Example 94, (6S)-6-[2-Chloro-3-(3-chloro-phenyl)phenyl]-3-[(1R*)-1-cyclopropyl-2-hydroxyethyl]-2-imino-6-methylhexahydro-pyrimidin-4-one hydrochloride] | 88 | 
18 | C[C@H]1C[C@@H](N2C(=N)N[C@](C)(c3cccc(-c4ccc(C5CC5)nc4)c3Cl)CC2=O)CCS1(=O)=O (relative stereo) [Example 67, (6S)-6-[2-Chloro-3-(6-cyclopropyl-pyridin-3-yl)phenyl]-2-imino-6-methyl-3-[(2S*,4S*)-2-methyl-1,1-dioxothian-4-yl]hexahydro-pyrimidin-4-one hydrochloride] | 88 | 

— US20250134890A1, “ANTIMALARIAL HEXAHYDROPYRIMIDINE ANALOGUES” (UCB BIOPHARMA SRL, priority 2022, published 2025)
